According to US11974990B2, “TXNIP-TRX complex inhibitors and methods of using the same” (City of Hope, priority 2018, dated 2024):
“Also recorded” adds a separate entry of the source.

Assays:
TXNIP-TRX complex = target: T1, TXNIP-TRX complex (Homo sapiens, UniProt Q9H3M7); assay: Co-IP of TXNIP with TRX in THP1 monocytes treated with compounds under high glucose; assay type: cell-based
T1 construct: Co-immunoprecipitation (Co-IP) of TXNIP with TRX in THP 1 monocytes cells treated with compounds under high glucose condition; endogenous in cells; host or cells: THP1 human monocytes cultured in 25 mM glucose
T1 sequence (Q9H3M7 1-391): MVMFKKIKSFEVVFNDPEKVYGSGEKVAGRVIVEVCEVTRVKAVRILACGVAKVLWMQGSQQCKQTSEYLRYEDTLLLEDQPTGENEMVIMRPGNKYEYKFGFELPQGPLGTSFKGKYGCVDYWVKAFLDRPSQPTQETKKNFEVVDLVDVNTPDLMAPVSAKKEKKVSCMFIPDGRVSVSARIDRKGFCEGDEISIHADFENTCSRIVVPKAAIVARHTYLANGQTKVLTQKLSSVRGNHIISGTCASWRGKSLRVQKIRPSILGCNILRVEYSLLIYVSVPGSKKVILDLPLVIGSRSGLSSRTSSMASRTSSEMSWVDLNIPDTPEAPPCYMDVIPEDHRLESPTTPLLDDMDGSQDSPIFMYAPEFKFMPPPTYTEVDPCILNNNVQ
Description: FIGS. 4A-4B. Co-IP with anti-TRX in THP 1 cells treated with compounds under high glucose condition. THP1 cells were treated by 10 uM compounds over night, then glucose was added up to 25 mM. The cells were cultured for 72-96 h. Cell extracts were prepared using cell extract buffer (Thermo Fisher Scientific) and Co-IP were performed with mouse anti-TRX (abcam).
Assay 1: Co-immunoprecipitation (Co-IP) of TXNIP with TRX in THP 1 monocytes cells treated with compounds under high glucose condition. In this assay, we looked for compounds that can interfere with the interaction between TXNIP and TRX in THP-1 monocytes treated with HG. So here compounds are added to cells in culture. […] So we picked the candidates only if the results are repeatable.
Co-IP with compounds treated THP1 under high glucose condition. THP1 cells were treated with compounds (2.5 uM) overnight and glucose was add to 25 mM and culture for 3-5 days, then coIP were carried using co-IP protocol.
1. Transfer the cultured cells from the culture dish to a 15-mL conical tube. 2. Centrifuge at 500×g for 2 min at 4° C. and remove the supernatant. 3. Wash with ice-cold PBS and centrifuge at 500×g for 2 min at 4° C. Remove the supernatant. 4. Repeat Step 3 twice.
5. Resuspend the cell pellet in ice-cold cell lysis buffer (1 mL per 1×10^7 cells) and incubate on ice for 10 min. 6. Sonicate cells in ice bath three times for 5 second pulses each. 7. Centrifuge at 13,000×g at 4° C. for 10 min, and transfer the supernatant to a fresh tube. Store the tube on ice for further use, or for long storage at −80° C.
8. Resuspend the magnetic beads by pipetting up and down for several times. 9. Transfer 20 μL of bead slurry to a fresh tube. Place the tube in a magnetic separation rack […]. Carefully remove the supernatant once the solution is clear. 10. […]
Note: Pre-clearing the lysate is recommended to reduce the non-specific binding. However, if the protein is detected by western blotting, pre-clearing may not be necessary unless a contaminating protein is interfering with visualization of the protein of interest. […]

TNF-α mRNA = TNF-α mRNA expression (RT-PCR) in murine RAW macrophages; assay type: cell-based; conditions: RAW cells, 25 mM glucose, 72 h (FIG. 10B)
Description: FIGS. 10A-10B. FIG. 10A. […] RAW cells were cultured in 25 mM glucose with C1 (uM) for 72 h. Total RNA was prepared. RT-PCR was performed. Data shown are the mean+SEM from triplicates. Statistical analysis was performed for each column vs. high glucose (HG) DMSO using one-way ANOVA: *<0.0001. FIG. 10B. […] RAW cells were cultured in 25 mM glucose with C1 (uM) for 72 hours. Total RNA was prepared. RT-PCR was performed. Data shown are the mean+SEM from triplicates. Statistical analysis was performed for each column vs. HG DMSO using one-way ANOVA: *<0.0001.
RNA extraction and quantitative RT-PCR. RNA was extracted using the Direct-zol™ RNA MiniPrep Plus (Zymo Research). Reverse transcription of RNA samples into cDNA was performed using the GeneAmp RNA PCR Kit (Applied Biosystems), dNTP (from Roche Applied Science), Rnase inhibitor, MULV Reverse Transcriptase and Random hexamers reagent (all from Invitrogen). Diluted cDNA was quantified using real-time PCR performed with Power SYBR Green qPCR MasterMix (Applied Biosystem) and 7500 real-time PCR system (Applied Biosystems). The HPRT1 gene was used as an internal control.

CC(C)C(C(=O)O)N1C(=O)c2ccncc2C1=O (stereo not drawn) [Compound C1, 2-(1,3-dioxo-1,3-dihydro-2H-pyrrolo[3,4-c]pyridin-2-yl)-3-methylbutanoic acid] was tested, and the “TXNIP association/interaction with TRX (co-IP, blot with TXNIP antibody)” value (TXNIP-TRX complex; THP1, 25 mM glucose, 5 uM C1, 16-72 h time course, nuclear cell extracts) was “Inhibition of TXNIP-TRX interaction; also recorded: significantly reduced at 48 h”, the “HG-induced TXNIP-TRX co-IP band intensity” value (TXNIP-TRX complex; THP1 cells, compounds added to cells in culture overnight, glucose to 25 mM, 72-96 h, anti-TRX IP) was “inhibit high glucose-induced TXNIP-TRX co-immunoprecipitation; also recorded: reproducibly shows a reduction in the HG-induced band” and the “TNF-α mRNA expression” value (TNF-α mRNA) was “decreased TNF-α mRNA expression; also recorded: inhibited TXNIP and TNF-α mRNA expression”.
